What all share (assay type): cell-based
One experiment concerns SARS-CoV-2. The experiment is described as follows: SARS-CoV-2 antiviral assay (A549-hACE2, Nano luciferase). The conditions noted are these: A549-hACE2 cells, SARS-CoV2-Nano, MOI 0.025, 48 h, Table 4, read-out: EC50 SARS CoV2.
In experiment [1] the test system is Respiratory syncytial virus recombinant with luciferase (RSV-Luc5). The experiment is described as follows: microbe, parasite or virus in culture. The conditions noted are these: Table 3.
Experiment [2] relates to Recombinant respiratory syncytial virus expressing the firefly luciferase protein (RSV-Fluc). The experiment is described as follows: microbe, parasite or virus in culture. As to conditions: Table 4.
Experiment [3] deals with Respiratory syncytial virus (RSV) strain A2. The experiment is described as follows: RSV antiviral assay (HEp-2, 96 well). The conditions noted are these: read-out: EC50 RSV HEP2 96; HEp-2 cells, RSV A2, MOI=4, 4 days, 96 well; Table 3.
The test system is the same in experiment [4]. The experiment is described as follows: Hep-2 RSV2 384-well assay (EC50-HEP2-384). The conditions noted are these: HEp-2 cells, RSV A2, MOI=4, 4 days, Table 3.
Setting [5] is: Severe acute respiratory syndrome coronavirus 2, 48 h.
The mark [6] stands for this setting: human respiratory syncytial virus, HEp-2, 72 h, read-out: EC50 RSVFluc-Hep2 384, HEp-2 cells, RSV-Luc5, MOI=0.5, 3 days, 384 well.
The mark [7] stands for this setting: human respiratory syncytial virus, NHBE, 72 h, read-out: EC50 RSVFluc NHBE 96, NHBE cells, RSV-Fluc, MOI of 0.1, three days, 96 well.
Setting [8] is: read-out: EC50 RSVFluc-Hep2 384, HEp-2 cells, RSV-Luc5, MOI=0.5, 3 days, 384 well.
The mark [9] stands for this setting: read-out: EC50 RSVFluc NHBE 96, NHBE cells, RSV-Fluc, MOI of 0.1, three days, 96 well.

Like-named read-outs stand apart in the source and are kept apart here.

A word on the EC50: it is the concentration that produces a half-maximal response. For the molecule `C[C@H](NP(=O)(OC[C@H]1O[C@@](C#N)(c2ccc3c(N)ncnn23)[C@H](O)[C@@H]1O)Oc1ccccc1)C(=O)OC1CC2(CCC2)C1` (single isomer, unassigned) [Example 44a], the values for the EC50 (in the experiment on SARS-CoV-2 (setting [5]); in experiment [1] (setting [6]); in experiment [2] (setting [7])) were 102 nM, 21.7 nM and 9.13 nM, respectively.

As for `C[C@H](NP(=O)(OC[C@H]1O[C@@](C#N)(c2ccc3c(N)ncnn23)[C@H](O)[C@@H]1O)Oc1ccccc1)C(=O)OC1CC2(CCC2)C1` (single isomer, unassigned) [Example 44b], the EC50 came to 130 nM in the experiment on SARS-CoV-2, 22.9 nM in experiment [1] (setting [8]) and 12.4 nM in experiment [2] (setting [9]).

Regarding `CC(C)C(=O)O[C@H]1[C@@H](OC(=O)C(C)C)[C@](C#N)(c2ccc3c(N)ncnn23)O[C@@H]1COP(=O)(N[C@@H](C)C(=O)OC1CC2(CCC2)C1)Oc1ccccc1` (single isomer, unassigned) [Example 46a], the EC50 in the experiment with SARS-CoV-2 (setting [5]) is 249 nM; in experiment [1] (setting [6]) it was 30.2 nM; in experiment [2] (setting [7]) it was 5.59 nM.

For `CC(C)C(=O)O[C@H]1[C@@H](OC(=O)C(C)C)[C@](C#N)(c2ccc3c(N)ncnn23)O[C@@H]1COP(=O)(N[C@@H](C)C(=O)OC1CC2(CCC2)C1)Oc1ccccc1` (single isomer, unassigned) [Example 46b], the EC50 in the experiment on SARS-CoV-2 turned out to be 400 nM; in experiment [1] (setting [8]), 30 nM; in experiment [2] (setting [9]), 6.63 nM.

On to `CCC(=O)O[C@H]1[C@@H](OC(=O)CC)[C@](C#N)(c2ccc3c(N)ncnn23)O[C@@H]1COP(=O)(N[C@@H](C)C(=O)OCC(CC)CC)Oc1cccc2ccccc12` (single isomer, unassigned) [Example 79b], for which the EC50 in experiment [3] was determined as 21.6 nM; in the experiment on SARS-CoV-2, 27.8 nM; in experiment [1] (setting [6]), 45.6 nM; in experiment [2] (setting [7]), 6.33 nM.

Regarding `CC(=O)O[C@H]1[C@@H](OC(C)=O)[C@](C#N)(c2ccc3c(N)ncnn23)O[C@@H]1COP(=O)(N[C@@H](C)C(=O)OCC1CC1)Oc1ccc(C(C)(C)C)cc1` (single isomer, unassigned) [Example 102b], the EC50 in the experiment with SARS-CoV-2 turned out to be 86 nM; in experiment [4], 43 nM; in experiment [1] (setting [8]), 26 nM.

Consider `CCC(CC)COC(=O)[C@H](C)NP(=O)(OC[C@H]1O[C@@](C#N)(c2ccc3c(N)ncnn23)[C@H](O)[C@@H]1O)Oc1ccc(C(C)(C)C)c2ccccc12` (single isomer, unassigned) [Example 170a], for which the values for the EC50 (with SARS-CoV-2 (setting [5]); in experiment [1] (setting [6])) were 960 nM and 1420 nM, respectively.

`CCC(CC)COC(=O)[C@H](C)NP(=O)(OC[C@H]1O[C@@](C#N)(c2ccc3c(N)ncnn23)[C@H](O)[C@@H]1O)Oc1ccc(C(C)(C)C)c2ccccc12` (single isomer, unassigned) [Example 170b]: the EC50 was found to be 923 nM in the experiment with SARS-CoV-2 and 843 nM in experiment [1] (setting [8]).

Regarding `CCC(CC)COC(=O)[C@H](C)NP(=O)(OC[C@H]1O[C@@](C#N)(c2ccc3c(N)ncnn23)[C@H](OC(C)=O)[C@@H]1OC(C)=O)Oc1ccc(C(C)(C)C)c2ccccc12` (single isomer, unassigned) [Example 171a], the EC50 came out at 931 nM in the experiment on SARS-CoV-2 and 712 nM in experiment [1] (setting [6]).

On to `CCC(CC)COC(=O)[C@H](C)NP(=O)(OC[C@H]1O[C@@](C#N)(c2ccc3c(N)ncnn23)[C@H](OC(C)=O)[C@@H]1OC(C)=O)Oc1ccc(C(C)(C)C)c2ccccc12` (single isomer, unassigned) [Example 171b], for which the EC50 came to 415 nM with SARS-CoV-2 and 537 nM in experiment [1] (setting [8]).

Turning to `CCC(=O)O[C@H]1[C@@H](OC(=O)CC)[C@](C#N)(c2ccc3c(N)ncnn23)O[C@@H]1COP(=O)(N[C@@H](C)C(=O)OCC(CC)CC)Oc1ccc(C(C)(C)C)c2ccccc12` (single isomer, unassigned) [Example 172b], the results for the EC50 (in the experiment with SARS-CoV-2 (setting [5]); in experiment [1] (setting [8])) were 871 nM and 610 nM, respectively.

On to `CCC(CC)COC(=O)[C@H](C)NP(=O)(OC[C@H]1O[C@@](C#N)(c2ccc3c(N)ncnn23)[C@H](OC(=O)C(C)C)[C@@H]1OC(=O)C(C)C)Oc1ccc(C(C)(C)C)c2ccccc12` (single isomer, unassigned) [Example 173a], for which the EC50 with SARS-CoV-2 (setting [5]) was found to be 10000 nM; in experiment [1] (setting [6]), 822 nM.

On to `CCC(CC)COC(=O)[C@H](C)NP(=O)(OC[C@H]1O[C@@](C#N)(c2ccc3c(N)ncnn23)[C@H](OC(=O)C(C)C)[C@@H]1OC(=O)C(C)C)Oc1ccc(C(C)(C)C)c2ccccc12` (single isomer, unassigned) [Example 173b], for which the EC50 in experiment [1] (setting [8]) came to 765 nM.

As to `C[C@H](NP(=O)(OC[C@H]1O[C@@](C#N)(c2ccc3c(N)ncnn23)[C@H](O)[C@@H]1O)Oc1ccc(Cl)cc1)C(=O)OC1CCCCCCC1` (single isomer, unassigned) [Example 174a], in experiment [1] (setting [8]), the EC50 was 7.09 nM.

With `C[C@H](NP(=O)(OC[C@H]1O[C@@](C#N)(c2ccc3c(N)ncnn23)[C@H](O)[C@@H]1O)Oc1ccc(Cl)cc1)C(=O)OC1CCCCCCC1` (single isomer, unassigned) [Example 174b], the EC50 in experiment [1] (setting [8]) turned out to be 62.8 nM.

Take `CC(C)C(=O)O[C@H]1[C@@H](OC(=O)C(C)C)[C@](C#N)(c2ccc3c(N)ncnn23)O[C@@H]1COP(=O)(N[C@@H](C)C(=O)OCC1CC1)Oc1ccc(C(C)(C)C)cc1` (stereo partly drawn) [Example 104b, (2R,3R,4R,5R)-2-(4-aminopyrrolo[2,1-f][1,2,4]triazin-7-yl)-5-((((4-(tert-butyl)phenoxy)(((S)-1-(cyclopropylmethoxy)-1-oxopropan-2-yl)amino)phosphoryl)oxy)methyl)-2-cyanotetrahydrofuran-3,4-diyl bis(2-methylpropanoate)]: the EC50 with SARS-CoV-2 is 294 nM; in experiment [4], 57.8 nM; in experiment [1] (setting [6]) it was 22.8 nM.

As to `CCC(CC)COC(=O)[C@H](C)NP(=O)(OC[C@H]1O[C@@](C#N)(c2ccc3c(N)ncnn23)[C@H](O)[C@@H]1O)Oc1ccc(C(C)(C)C)c2ccccc12` (stereo partly drawn) [Example 170, 2-ethylbutyl ((((2R,3S,4R,5R)-5-(4-aminopyrrolo[2,1-f][1,2,4]triazin-7-yl)-5-cyano-3,4-dihydroxytetrahydrofuran-2-yl)methoxy)((4-(tert-butyl)naphthalen-1-yl)oxy)phosphoryl)-L-alaninate], in experiment [1] (setting [6]), the concentration for a half-maximal effect (EC50) amounted to 1010 nM.

As to `CCC(CC)COC(=O)[C@H](C)NP(=O)(OC[C@H]1O[C@@](C#N)(c2ccc3c(N)ncnn23)[C@H](OC(=O)C(C)C)[C@@H]1OC(=O)C(C)C)Oc1ccc(C(C)(C)C)c2ccccc12` (stereo partly drawn) [Example 173, (2R,3R,4R,5R)-2-(4-aminopyrrolo[2,1-f][1,2,4]triazin-7-yl)-5-(((((4-(tert-butyl)naphthalen-1-yl)oxy)(((S)-1-(2-ethylbutoxy)-1-oxopropan-2-yl)amino)phosphoryl)oxy)methyl)-2-cyanotetrahydrofuran-3,4-diyl bis(2-methylpropanoate)], in experiment [1] (setting [6]), the EC50 was determined as 798 nM.

In the case of `C[C@H](NP(=O)(OC[C@H]1O[C@@](C#N)(c2ccc3c(=N)n(COP(=O)(O)OCc4ccccc4)cnn23)[C@H](O)[C@@H]1O)Oc1cccc2ccccc12)C(=O)OC1CC2(CCC2)C1` (stereo partly drawn) [Example 176, spiro[3.3]heptan-2-yl ((((2R,3S,4R,5R)-5-(3-((((benzyloxy)(hydroxy)phosphoryl)oxy)methyl)-4-imino-3,4-dihydropyrrolo[2,1-f][1,2,4]triazin-7-yl)-5-cyano-3,4-dihydroxytetrahydrofuran-2-yl)methoxy)(naphthalen-1-yloxy)phosphoryl)-L-alaninate], in experiment [1] (setting [6]), the EC50 is 153 nM.

Take `C[C@H](NP(=O)(OC[C@H]1O[C@@](C#N)(c2ccc3c(=N)n(COP(=O)(O)O)cnn23)[C@H](O)[C@@H]1O)Oc1cccc2ccccc12)C(=O)OC1CC2(CCC2)C1` (stereo partly drawn) [Example 177, spiro[3.3]heptan-2-yl ((((2R,3S,4R,5R)-5-cyano-3,4-dihydroxy-5-(4-imino-3-((phosphonooxy)methyl)-3,4-dihydropyrrolo[2,1-f][1,2,4]triazin-7-yl)tetrahydrofuran-2-yl)methoxy)(naphthalen-1-yloxy)phosphoryl)-L-alaninate]: the values for the EC50 (with SARS-CoV-2 (setting [5]); in experiment [1] (setting [6]); in experiment [2] (setting [7])) were 410 nM, 17 nM and 16 nM, respectively.

Take `CC(C)C(=O)O[C@H]1[C@@H](OC(=O)C(C)C)[C@](C#N)(c2ccc3c(=N)n(COP(=O)(O)O)cnn23)O[C@@H]1COP(=O)(N[C@@H](C)C(=O)OC1CC2(CCC2)C1)Oc1cccc2ccccc12` (stereo partly drawn) [Example 178, (2R,3R,4R,5R)-2-cyano-2-(4-imino-3-((phosphonooxy)methyl)-3,4-dihydropyrrolo[2,1-f][1,2,4]triazin-7-yl)-5-((((naphthalen-1-yloxy)(((S)-1-oxo-1-(spiro[3.3]heptan-2-yloxy)propan-2-yl)amino)phosphoryl)oxy)methyl)tetrahydrofuran-3,4-diyl bis(2-methylpropanoate)]: the EC50 was 1370 nM with SARS-CoV-2 (setting [5]), 85 nM in experiment [1] (setting [6]) and 12.2 nM in experiment [2] (setting [7]).

In the case of `CCC(CC)COC(=O)[C@H](C)NP(=O)(OC[C@H]1O[C@@](C#N)(c2ccc3c(=N)n(COP(=O)(O)O)cnn23)[C@H](O)[C@@H]1O)Oc1ccc(C(C)(C)C)cc1` (stereo partly drawn) [Example 179, 2-ethylbutyl ((4-(tert-butyl)phenoxy)(((2R,3S,4R,5R)-5-cyano-3,4-dihydroxy-5-(4-imino-3-((phosphonooxy)methyl)-3,4-dihydropyrrolo[2,1-f][1,2,4]triazin-7-yl)tetrahydrofuran-2-yl)methoxy)phosphoryl)-L-alaninate], the EC50 amounted to 850 nM with SARS-CoV-2 (setting [5]), 16.8 nM in experiment [1] (setting [6]) and 7.84 nM in experiment [2] (setting [7]).

The values above are taken from patent US12404289B2 (Gilead Sciences, Inc., priority 2020, dated 2025).
